Measurements: patent publication US4263427A, “Monensin urethane derivatives” (priority 1979, dated 1981)
Values after ≈ are worked out from the molar mass of the structure shown. Like-named read-outs stand apart in the source and are kept apart here.

What was measured:
[1] = Oral antihypertensive activity: blood pressure and heart rate (Table 9); type: in vivo
Description: Compounds of formula I, and their pharmaceutically acceptable salts are orally active as antihypertensive agents.

Eimeria tenella = assay: Anti-coccidial effect of monensin urethanes added to the feed of infected chickens (Table 7); type: in vivo; details: infected untreated control 3.0, less than 2.5 significant
Protocol: This test utilizes ten chickens per drug group. Ten chickens are employed as a weight control and ten chickens as an infected control. The drug is given 48 hours in advance of the infection. One gm. of the test drug is mixed in a mechanical mixer with a sufficient amount of chicken feed to result in the desired dosage. The infection consists of approximately 200,000 oocysts given orally by pipette. The tests lasts for eleven days and then the surviving birds are autopsied and examined for gross lesions in the ceca. The test birds are rated according to the number of survivors and the number of cecal lesions. The results are expressed as average degree of infection (A.D.I.). An average degree of infection of less than 2.5 is considered to be significant.

[2] = system: Streptococcus cellulosac 3313; assay: Minimum Inhibitory Concentration, agarwell diffusion assay (Table 6); type: cell-based; details: for MIC: Streptococcus, 3313, read-out: Minimum Inhibitory Concentration, Streptococcus cellulosac 3313
Description: (§1) (a) Lowest twofold dilution giving zone of inhibition in the agarwell
(§2) (b) NRRL collection number, all the rest ate ATCC numbers.

[3] = system: Paceilomyces variotl 25820; assay: as above; type: cell-based; details: for MIC: read-out: Minimum Inhibitory Concentration, Paceilomyces variotl 25820
Description: as §1, §2

Bacillus megaterium 8CU = assay: as above; type: cell-based; details: for MIC: Priestia megaterium, 8CU, read-out: Minimum Inhibitory Concentration, Bacillus megaterium 8CU
Description: as §1, §2

Sarcina lutca 9341 = assay: as above; type: cell-based; details: Sarcina, 9341, read-out: Minimum Inhibitory Concentration, Sarcina lutca 9341
Description: as §1, §2

Bacillus sp. TA 27860 = assay: as above; type: cell-based; details: for MIC: Bacillus, SP.TA27860, Bacillus sp. TA 27860, read-out: Minimum Inhibitory Concentration
Description: as §1, §2

Bacillus sp. E 27859 = assay: as above; type: cell-based; details: for MIC: Bacillus, SP.E27859, Bacillus sp. E 27859, read-out: Minimum Inhibitory Concentration
Description: as §1, §2

MycoBacterium phiel 355 = assay: as above; type: cell-based; details: Mycobacterium, 355, read-out: Minimum Inhibitory Concentration, MycoBacterium phiel 355
Description: as §1, §2

Staph. aureus 6538 = assay: as above; type: cell-based; details: for MIC: Staphylococcus aureus, 6538, read-out: Minimum Inhibitory Concentration, Staph. aureus 6538
Description: as §1, §2

Bacillus subtilis 583 = assay: as above; type: cell-based; details: Bacillus subtilis, 583, Bacillus subtilis 583 (NRRL), read-out: Minimum Inhibitory Concentration
Description: as §1, §2

[4] = system: Streptococcus faecium 8043; assay: as above; type: cell-based; details: for MIC: Enterococcus faecium, 8043, Streptococcus faecium 8043, read-out: Minimum Inhibitory Concentration
Description: as §1, §2

rumen fluid = details: control 100
Treponema hyodysenteriae = assay: Activity against Treponema hyodysenteriae (MIC, blood agar plates); type: cell-based; details: 42° C., anaerobic
Description: Testing for activity against Treponema hyodysenteriae, a cause of swine dysentery consisted of inoculation of blood agar plates containing a series of two or fourfold dilutions of the monensin urethane derivatives with tenfold dilutions of the T. hyodysenteriae strain.

SMILES | MIC [2] | MIC [3] | MIC (Bacillus megaterium 8CU) | MIC (Sarcina lutca 9341) | MIC (Bacillus sp. TA 27860) | MIC (Bacillus sp. E 27859) | MIC (MycoBacterium phiel 355) | MIC (Staph. aureus 6538) | MIC (Bacillus subtilis 583) | MIC [4] | Rate of Gas Production, Percent Production of Control Fermentations (rumen fluid; 50 ppm) | Total VFA, Percent Production of Control Fermentations (rumen fluid; 50 ppm) | Day of Maximum Change, Blood Pressure ([1]; oral dose 10 mg/kg) | Day of Maximum Change, Heart Rate ([1]; oral dose 10 mg/kg) | Maximum Change (%), Blood Pressure ([1]; oral dose 10 mg/kg) | Maximum Change (%), Heart Rate ([1]; oral dose 10 mg/kg) | Mean Blood Pressure at time of maximum effect ([1]; oral dose 10 mg/kg) | Mean Blood Pressure before treatment ([1]; oral dose 10 mg/kg) | further results
CCC1(C2OC(C3OC(O)(COC(=O)Nc4ccc(C)cc4)C(C)CC3C)CC2C)CCC(C2(C)CCC3(CC(O)C(C)C(C(C)C(OC)C(C)C(=O)O)O3)O2)O1 (stereo not shown) [Monensin A, 4-methylphenylurethane, Monensin A, 4-methyl phenylurethane] | 0.8 µg/mL (≈ 0.995 µM) | 1.6 µg/mL (≈ 1.99 µM) | 0.2 µg/mL (≈ 0.249 µM) | 0.4 µg/mL (≈ 0.497 µM) | 0.2 µg/mL (≈ 0.249 µM) | 0.05 µg/mL (≈ 0.0622 µM) | 1.6 µg/mL (≈ 1.99 µM) | 0.4 µg/mL (≈ 0.497 µM) | 0.4 µg/mL (≈ 0.497 µM) | 0.2 µg/mL (≈ 0.249 µM) |  |  |  |  |  |  |  |  | Day of Maximum Change, Blood Pressure ([1]; oral dose 1 mg/kg): 3 days; Day of Maximum Change, Heart Rate ([1]; oral dose 1 mg/kg): 4 days; Maximum Change (%), Blood Pressure ([1]; oral dose 1 mg/kg): 16%; Maximum Change (%), Heart Rate ([1]; oral dose 1 mg/kg): 15%; Mean Blood Pressure at time of maximum effect ([1]; oral dose 1 mg/kg): 182 mm Hg; Mean Blood Pressure before treatment ([1]; oral dose 1 mg/kg): 217 mm Hg; Average Degree of Infected (A.D.I.) (Eimeria tenella; 75 ppm in feed): 1.1
COC(C(C)C(=O)O)C(C)C1OC2(CCC(C)(C3CCC(C)(C4OC(C5OC(O)(COC(=O)NCCc6ccccc6)C(C)CC5C)CC4C)O3)O2)CC(O)C1C (stereo not shown) [Monensin B, 2-phenethylurethane] | 12.5 µg/mL (≈ 15.5 µM) |  | 3.1 µg/mL (≈ 3.86 µM) | 3.1 µg/mL (≈ 3.86 µM) | 3.1 µg/mL (≈ 3.86 µM) | 1.6 µg/mL (≈ 1.99 µM) | 25 µg/mL (≈ 31.1 µM) | 6.3 µg/mL (≈ 7.84 µM) | 3.1 µg/mL (≈ 3.86 µM) | 0.8 µg/mL (≈ 0.995 µM) | 92% | 149.1% | 2 days | 3 days | 13% | 14% | 189 mm Hg | 216 mm Hg | Rate of Gas Production, Percent Production of Control Fermentations (rumen fluid; 10 ppm): 93%; Total VFA, Percent Production of Control Fermentations (rumen fluid; 10 ppm): 157.8%; MIC (Treponema hyodysenteriae; 48 hours, 2-phenethylurethane (natural product)): 0.4-2.0 meg/ml; MIC (Treponema hyodysenteriae; 48 hours, 2-phenethylurethane (synthetic product)): 2.0 meg/ml
COC(C(C)C(=O)O)C(C)C1OC2(CCC(C)(C3CCC(C)(C4OC(C5OC(O)(COC(=O)NC(C)c6ccccc6)C(C)CC5C)CC4C)O3)O2)CC(O)C1C [Monensin B, (R)-1-phenethylurethane] |  |  |  | 3.1 µg/mL (≈ 3.86 µM) |  |  | 12.5 µg/mL (≈ 15.5 µM) |  | 1.6 µg/mL (≈ 1.99 µM) |  | 103.3% | 82.7% |  |  |  |  |  |  | Minimum Inhibitory Concentration ([2]; Streptococcus cellulosac 3313, listed as Monensin B,(R)-1-phenethylurethane): 3.1 meg/ml; Minimum Inhibitory Concentration ([3]; Paceilomyces variotl 25820, listed as Monensin B,(R)-1-phenethylurethane): 3.1 meg/ml; Minimum Inhibitory Concentration (Bacillus megaterium 8CU; Bacillus megaterium 8CU, listed as Monensin B,(R)-1-phenethylurethane): 1.6 meg/ml; Minimum Inhibitory Concentration (Bacillus sp. TA 27860; Bacillus sp. TA 27860, listed as Monensin B,(R)-1-phenethylurethane): 1.6 meg/ml; Minimum Inhibitory Concentration (Bacillus sp. E 27859; Bacillus sp. E 27859, listed as Monensin B,(R)-1-phenethylurethane): 0.4 meg/ml; Minimum Inhibitory Concentration (Staph. aureus 6538; Staph. aureus 6538, listed as Monensin B,(R)-1-phenethylurethane): 6.3 meg/ml; Minimum Inhibitory Concentration ([4]; Streptococcus faecium 8043, listed as Monensin B,(R)-1-phenethylurethane): 0.8 meg/ml; MIC (Treponema hyodysenteriae; Brachyspira hyodysenteriae, 48 h): 0.4 µg/mL (≈ 0.497 µM)
CCC1(C2OC(C3OC(O)(COC(=O)NCCc4ccccc4)C(C)CC3C)CC2C)CCC(C2(C)CCC3(CC(O)C(C)C(C(C)C(OC)C(C)C(=O)O)O3)O2)O1 (stereo not shown) [Monensin A, 2-phenethylurethane] | 12.5 µg/mL (≈ 15.3 µM) | 12.5 µg/mL (≈ 15.3 µM) | 0.8 µg/mL (≈ 0.978 µM) | 1.6 µg/mL (≈ 1.96 µM) | 1.6 µg/mL (≈ 1.96 µM) | 0.8 µg/mL (≈ 0.978 µM) | 6.3 µg/mL (≈ 7.7 µM) | 6.3 µg/mL (≈ 7.7 µM) | 1.6 µg/mL (≈ 1.96 µM) | 0.4 µg/mL (≈ 0.489 µM) | 101.7% | 84.3% | 5 days | 2 days | 15% | 18% | 189 mm Hg | 223 mm Hg | 
CCC1(C2OC(C3OC(O)(COC(=O)Nc4ccc(I)cc4)C(C)CC3C)CC2C)CCC(C2(C)CCC3(CC(O)C(C)C(C(C)C(OC)C(C)C(=O)O)O3)O2)O1 (stereo not shown) [Monensin A, 4-iodophenylurethane] |  |  |  |  |  |  |  |  |  |  |  |  |  |  |  |  |  |  | Average Degree of Infected (A.D.I.) (Eimeria tenella; 125 ppm in feed): 0.1
